Experimental data taken from US11241433B2, “Treatment or prevention of autism disorders using menthol, linalool and/or icilin” (Société des Produits Nestlé S.A., priority 2013, dated 2022).

Legend:
Type in all cases: cell-based
[1] = system: Lateral Amygdala glutamatergic neuron (in a mouse brain slice); experiment: whole cell, current clamp recordings, square pulse of 2.5 s at high depolarization; settings: square pulse of 2.5 s at high depolarization of membrane potential (approximately -30 mV); relative to control; FIG. 2
From the text: (§1) A mouse brain slice was used to study the effects of Menthol, Linalool and Icilin. The amygdaloid complex is located within the medial temporal lobe in neocortex and amygdala. The lateral and basolateral nuclei of the amygdaloid complex receive sensory information from cortical and thalamic structures, process the information, and then transmit the information, either directly or through the basal nucleus, to the central nucleus. For experimental analysis of neural activity, synaptic responses from the basolateral complex can be evoked electrically using electrodes, and the action potentials can be measured.
A square pulse of 2.5 s was applied at high depolarization of membrane potential (approximately −30 mV).

[2] = system: neocortex; experiment: action potential measurements in mouse brain slice, neocortex; settings: for amount of current required to trigger an action potential / threshold to trigger an action potential: neocortex
From the text: as §1

[3] = system: Lateral Amygdala glutamatergic neuron (in a mouse brain slice); experiment: whole cell, current clamp recordings of spontaneous bursts with increasing concentration of gabazine
From the text: as §1

In the case of `O=C1NC(c2cccc([N+](=O)[O-])c2)=CCN1c1ccccc1O` [Icilin], the “inactivation of the sodium fast channels / further neural firing” value [1] is reported as “inactivation of the sodium fast channels happens sooner relative to control”, the “action potentials at higher stimulation levels” value (“action potentials” for short) [2] is reported as “abort action potentials at higher stimulation levels” and the “amount of current required to trigger an action potential” value (“amount of current required” below) [2] is reported as “increase the amount of current required to trigger an action potential”. The “threshold to trigger an action potential” value [2] was “increase the threshold to trigger an action potential”.

`CC1CCC(C(C)C)C(O)C1` (centres unmarked) [Menthol] was tested, and the “spontaneous action potential bursts” value ([3]; Menthol 250 μM applied extracellularly 10 minutes previous to and during increasing concentrations of gabazine, FIG. 5 compared to FIG. 3) was “complete absence or a strongly decreased presence of spontaneous bursts”, the “inactivation of the sodium fast channels / further neural firing” value [1] was “inactivation of the sodium fast channels happens sooner relative to control” and the “action potentials” value [2] was “abort action potentials at higher stimulation levels”. For the same compound, the “amount of current required” value [2] was “increase the amount of current required to trigger an action potential” and the “threshold to trigger an action potential” value [2] was “increase the threshold to trigger an action potential”.

For `COc1ccc(-c2ccc(=N)n(CCCC(=O)O)n2)cc1` [gabazine], the “spontaneous action potential bursts” value ([3]; increasing concentrations of gabazine alone, applied extracellularly, recordings of 5 minutes each, 10 minute washout, FIG. 3) was “neurons spontaneously present action potential bursts”.

In the case of `C=CC(C)(O)CCC=C(C)C` (centres unmarked) [Linalool], the “inactivation of the sodium fast channels / further neural firing” value [1] is reported as “inactivation of the sodium fast channels happens sooner relative to control”, the “action potentials” value [2] is reported as “abort action potentials at higher stimulation levels” and the “amount of current required” value [2] is reported as “increase the amount of current required to trigger an action potential”. For the same compound, the “threshold to trigger an action potential” value [2] was “increase the threshold to trigger an action potential”.
